Where two headings read alike, the source gives them in different places. Marks after values point to notes of the source that are not given here.
Columns and labels:
[1] = test system: DispersinB; format: biochemical, Aggregatibacter actinomycetemcomitans; conditions: 50 mM citrate buffer pH 5.9, salt concentration as in label, control with no salts = 100%
Text: Activity of the control sample with no salts was considered 100%.

[2] = test system: DispersinB; conditions: 50 mM Citrate, 100 mM NaCl pH 5.9 control = 100%
Procedure: DispersinB enzyme solutions (100 μg/ml) were prepared in 50 mM citrate buffer, containing 200 mM K2SO4. The pH was adjusted (5.4 to 5.9). DispersinB enzymatic activity was measured using β-N-Acetylglucosaminidase assay kit from Sigma (product code CS0780) in 96-well microtiter plate following the manufacturer's instructions. The data was represented as % enzymatic activity in comparison to enzyme activity of control sample that contained 100 μg/ml DispersinB in 50 mM citrate buffer (pH 5.9) containing 100 mM NaCl Activity of the control sample was considered 100%.

[3] = test system: DispersinB; conditions: 50 mM citrate buffer pH 5.9, 100 mM K2SO4 sample = 100%
[4] = test system: DispersinB; format: biochemical, Aggregatibacter actinomycetemcomitans; conditions: 50 mM citrate buffer pH 5.9, 100 mM NaCl, levulinic acid % as in label, control = 100%
Procedure: DispersinB enzyme (100 μg/ml) solutions in 50 mM citrate buffer (pH 5.9), 100 mM NaCl containing Levulinic acid (0.25%-2%) were tested for DispersinB enzymatic activity following β-N-Acetylglucosaminidase assay.

[Cl-].[Na+] [100 mM NaCl, NaCl]
% enzymatic activity of DispersinB (Mean) [1]: 179* %
% Activity ([2]; pH 5.9): 100.00^b %

[Cl-].[Li+] [100 mM LiCl, LiCl]
% enzymatic activity of DispersinB (Mean) [1]: 97%

O=[N+]([O-])[O-].[K+] [100 mM KNO3, KNO3]
% enzymatic activity of DispersinB (Mean) [1]: 135* %

CC(=O)O.N [100 mM NH4 CH2COO, NH4 CH2COO]
% enzymatic activity of DispersinB (Mean) [1]: 66* %

O=S(=O)([O-])[O-].[K+].[K+] [K2SO4, potassium sulfate]
% enzymatic activity of DispersinB (Mean) ([1]; listed as 100 mM K2SO4): 211* %
% enzymatic activity of DispersinB (Mean) ([1]; listed as 200 mM K2SO4): 289* %
% Activity ([3]; 100 mM K2SO4): 100%
% Activity ([3]; 150 mM K2SO4): 143* %
% Activity ([3]; 200 mM K2SO4): 149* %
% Activity ([3]; 250 mM K2SO4): 159* %
% Activity ([3]; 300 mM K2SO4): 141* %
% Activity ([2]; pH 4): 11.06^ab %
% Activity ([2]; pH 4.2): 22.55^ab %
% Activity ([2]; pH 4.4): 34.17^ab %
% Activity ([2]; pH 4.6): 57.21 ^ab %
% Activity ([2]; pH 4.8): 81.09 ^ab %
% Activity ([2]; pH 5): 118.00 ^ab %
% Activity ([2]; pH 5.1): 133.61 ^ab %
% Activity ([2]; pH 5.2): 149.86 ^ab %
% Activity ([2]; pH 5.3): 142.65 ^ab %
% Activity ([2]; pH 5.4): 162.25^a %
% Activity ([2]; pH 5.5): 172.83^a %
% Activity ([2]; pH 5.6): 166.67^a %
% Activity ([2]; pH 5.7): 154.62^a %
% Activity ([2]; pH 5.8): 146.99 ^ab %
% Activity ([2]; pH 5.9): 143.77 ^ab %
% Activity ([2]; pH 6): 130.81 ^ab %

[Cl-].[Cl-].[Mg+2] [100 mM MgCl2, MgCl2]
% enzymatic activity of DispersinB (Mean) [1]: 81* %

CC(=O)CCC(=O)O [Levulinic acid, 4-oxopentanoic acid]
% enzymatic activity of DispersinB (Mean) ([4]; listed as 0.25% Levulinic acid): 103* %
% enzymatic activity of DispersinB (Mean) ([4]; listed as 0.5% Levulinic acid): 102%
% enzymatic activity of DispersinB (Mean) ([4]; listed as 1% Levulinic acid): 104%
% enzymatic activity of DispersinB (Mean) ([4]; listed as 2% Levulinic acid): 104* %
% enzymatic activity of DispersinB (Mean) ([4]; listed as 3% Levulinic acid): 109* %
% enzymatic activity of DispersinB (Mean) ([4]; listed as 4% Levulinic acid): 109* %
% enzymatic activity of DispersinB (Mean) ([4]; listed as 5% Levulinic acid): 114* %

O=S(=O)([O-])[O-].[Na+].[Na+] [100 mM Na2SO4, Na2SO4]
% enzymatic activity of DispersinB (Mean) [1]: 174* %
